“Also recorded” adds a separate entry of the source. Where two headings read alike, the source gives them in different places.
Assays:
ZR75-1 = assay: human cancer xenograft in mice, tumor growth inhibition; assay type: in vivo; details: ZR75-1 xenograft, BC FISH + ve, HRG (WB) −
Experimental: (§1) The HRG biomarker was identified by analysing the anti-tumor activity of the anti-HER3 antibody U3-1287 on various human cancer xenografts in vivo and analysis of the expression of HRG of these cell lines in vitro. Human tumor cell lines of various indications were grown as xenografts in mice and treated with the anti-HER3 antibody U3-1287 for several weeks. Inhibition of tumor growth was analysed by comparing the tumor volumes of control mice and mice treated with U3-1287. Human tumor cell lines were grown in vitro and analysed for HRG protein expression by Western blotting.

MDA-MB453 = assay: as above; assay type: in vivo; details: BC FISH + ve, HRG (WB) −
Experimental: as §1

A549 = assay: as above; assay type: in vivo; details: NSCLC, HRG (WB) +
Experimental: as §1

HT-29 = assay: as above; assay type: in vivo; details: HT-29 xenograft, Colon, HRG (WB) −
Experimental: as §1

BT474 = assay: as above; assay type: in vivo; details: BC FISH + ve, HRG (WB) −
Experimental: as §1

MKN-45 = assay: as above; assay type: in vivo; details: MKN-45 xenograft, Gastric, HRG (WB) −
Experimental: as §1

Calu-3 = assay: as above; assay type: in vivo; details: Calu-3 xenograft, NSCLC, HRG (WB) +
Experimental: as §1

HCC 1569 = assay: as above; assay type: in vivo; details: HCC 1569 xenograft, BC FISH + ve, HRG (WB) −
Experimental: as §1

BxPC3 = assay: as above; assay type: in vivo; details: Pancreas, HRG (WB) +
Experimental: as §1

A375 = assay: as above; assay type: in vivo; details: Melanoma, HRG (WB) −
Experimental: as §1

MCF-7 = assay: as above; assay type: in vivo; details: MCF-7 xenograft, BC FISH + ve, HRG (WB) −
Experimental: as §1

HT-144 = assay: as above; assay type: in vivo; details: HT-144 xenograft, Melanoma, HRG (WB) −
Experimental: as §1

FaDu = assay: as above; assay type: in vivo; details: Head&Neck, HRG (WB) +
Experimental: as §1

NC-H1975 = assay: as above; assay type: in vivo; details: NSCLC, HRG (WB) +
Experimental: as §1

NCI-H441 = assay: as above; assay type: in vivo; details: NSCLC, HRG (WB) −
Experimental: as §1

Sum225 = assay: as above; assay type: in vivo; details: BC FISH + ve, HRG (WB) −
Experimental: as §1

[1] = system: HER3 phosphorylation in CaOV3 cells; assay: in vitro reduction of phospho-HER3 and phospho-AKT levels by Western blotting; assay type: cell-based, human; details: CaOV3, no basal HER3 activation, stimulated with exogenous heregulin; FIG. 9
Experimental: (§2) FIG. 9 depicts efficacy determined in vitro by measuring reduction of phospho-HER3 and phospho-AKT levels by Western blotting.
(§3) U3-1287 efficacy was determined in vitro by measuring reduction of phospho-HER3 and phospho-AKT levels.

[2] = system: HER3 phosphorylation in A549 cells; assay: as above; assay type: cell-based, human; details: A549, endogenously express heregulin; FIG. 9
Experimental: as §2, §3

Stage IIIb/IV NSCLC [3] = details: for OS: Subjects (%) with events / OS: Subjects (%) without events (censored) / PFS: Subjects (%) with events / PFS: Subjects (%) without events (censored) / Progression-Free Survival, Time to event, Median / Overall Survival, Time to event, Median: Full Analysis Set; for Progression-Free Survival, Time to event, Median / Overall Survival, Time to event, Median: Kaplan-Meier Estimate; for Overall Survival, Time to event, Median: preliminary; for On-Study Death / Primary Cause of On-Study Death: Adverse Event / Primary Cause of On-Study Death: Disease Progression / Primary Reason for Discontinuing Study Treatment: Adverse Event / Primary Reason for Discontinuing Study Treatment: Death / Primary Reason for Discontinuing Study Treatment: Progressive Disease (Radiographic Progression): Enrolled/Randomized Analysis Set; for HR for PFS (pooled dose vs placebo): soluble HRG high group, + erlotinib
Experimental: (§4) In both portions of the study, subjects received 150 mg of erlotinib orally once daily. […] Tumors were to be assessed every 6 weeks (±3 days) up to the first 24 weeks of the study, then every 12 weeks (±7 days) independent of treatment cycle.
An “HRG high” subject was defined as a subject with observed soluble HRG concentration of higher than 980 pg/mL, the Quartile 3 of the sample set. Soluble HRC concentration was measured by the improved ELISA method disclosed herein.
At the point of primary analysis, the treatment assignment for all subjects was unblinded to designated study personnel for analysis after data were reconciled and cleaned, and a snapshot of the clean database was created. To minimize potential bias, individual treatment assignment was not divulged to subjects or Investigators until study closure.
All efficacy analyses were performed on the full analysis set, which includes all subjects in the randomized analysis set who received at least one dose of randomized study medication. The primary efficacy endpoint was PFS. PFS is defined as the time from the date of randomization to the earlier of the dates of the first objective documentation of radiographic disease progression or death due to any cause. A subject who was alive with no objective documentation of (radiographic) disease progression by the data cut-off date was to be censored at the date of the last evaluable tumor assessment. The key secondary efficacy endpoint, overall survival, was defined as the time from the date of randomization to death due to any cause and was analyzed in the same manner as the primary efficacy endpoint PFS.
Kaplan-Meier curves were generated for PFS and used to calculate medians and 95% CIs for each treatment group.
The stratification factors included histology (Adenocarcinoma vs Non-Adenocarcinoma) and best response to prior therapy (CR/PR/SD vs PD). […] Cox's proportional hazards model with the same stratification factors used for the stratified log-rank test.
Unless otherwise indicated, tog-rank p-values and HRs for PFS and OS were based on the primary analysis adjusted for the stratification factors at randomization as described above.

[4] = system: HER3 phosphorylation in BT474 cells; assay: in vitro HER3 phosphorylation by Western blotting; assay type: cell-based, human; details: FIG. 10
Experimental: FIG. 10 depicts Western blots showing that U3-1287 can block […] basal HER3 phosphorylation.
as §3

Stage IIIb/IV NSCLC [5] = details: Phase 1b, 150 mg erlotinib daily + 18 mg/kg patritumab every 3 weeks, 7 subjects
Experimental: as §4

[6] = monotherapy Phase 1 study of patritumab; assay type: in vivo
Experimental: A higher maintenance dose level of 18 mg/kg was also included to accommodate the possible effect of reduced tumor tissue penetration in the clinical setting relative to animal models.

[7] = 9 mg/kg patritumab + erlotinib (N = 71)
[8] = 9 mg/kg patritumab + erlotinib (N = 72)
[9] = 18 mg/kg patritumab + erlotinib (N = 70)
[10] = 18 mg/kg patritumab + erlotinib (N = 72)

patritumab
In vivo efficacy (SA) (ZR75-1): No | In vivo efficacy (SA) (MDA-MB453): No | In vivo efficacy (SA) (A549): Yes | In vivo efficacy (SA) (HT-29): Yes | In vivo efficacy (SA) (BT474): No | In vivo efficacy (SA) (MKN-45): Yes | In vivo efficacy (SA) (Calu-3): Yes | In vivo efficacy (SA) (HCC 1569): No | In vivo efficacy (SA) (BxPC3): Yes | In vivo efficacy (SA) (A375): No | In vivo efficacy (SA) (MCF-7): No | In vivo efficacy (SA) (HT-144): No | In vivo efficacy (SA) (FaDu): Yes | In vivo efficacy (SA) (NC-H1975): Yes | In vivo efficacy (SA) (NCI-H441): No | In vivo efficacy (SA) (Sum225): No | HER3 phosphorylation [1]: could be blocked | Basal HER3 phosphorylation [2]: could be blocked | OS: Subjects (%) with events (Stage IIIb/IV NSCLC [3]; [7]): 46 (64.8%) subjects (%) | OS: Subjects (%) without events (censored) (Stage IIIb/IV NSCLC [3]; [7]): 25 (35.2%) subjects (%) | PFS: Subjects (%) with events (Stage IIIb/IV NSCLC [3]; [7]): 52 (73.2%) subjects (%) | PFS: Subjects (%) without events (censored) (Stage IIIb/IV NSCLC [3]; [7]): 19 (26.8%) subjects (%) | Progression-Free Survival, Time to event, Median (Stage IIIb/IV NSCLC [3]; [7]): 2.5 months | Overall Survival, Time to event, Median (Stage IIIb/IV NSCLC [3]; [7]): 6.3 months | On-Study Death (Stage IIIb/IV NSCLC [3]; [8]): 9 subjects | Primary Cause of On-Study Death: Adverse Event (Stage IIIb/IV NSCLC [3]; [8]): 4 subjects | Primary Cause of On-Study Death: Disease Progression (Stage IIIb/IV NSCLC [3]; [8]): 4 subjects | Primary Reason for Discontinuing Study Treatment: Adverse Event (Stage IIIb/IV NSCLC [3]; [8]): 6 subjects | Primary Reason for Discontinuing Study Treatment: Death (Stage IIIb/IV NSCLC [3]; [8]): 2 subjects | Primary Reason for Discontinuing Study Treatment: Progressive Disease (Radiographic Progression) (Stage IIIb/IV NSCLC [3]; [8]): 45 subjects | OS: Subjects (%) with events (Stage IIIb/IV NSCLC [3]; [9]): 54 (77.1%) subjects (%) | OS: Subjects (%) without events (censored) (Stage IIIb/IV NSCLC [3]; [9]): 16 (22.9%) subjects (%) | PFS: Subjects (%) with events (Stage IIIb/IV NSCLC [3]; [9]): 58 (82.9%) subjects (%) | PFS: Subjects (%) without events (censored) (Stage IIIb/IV NSCLC [3]; [9]): 12 (17.1%) subjects (%) | Progression-Free Survival, Time to event, Median (Stage IIIb/IV NSCLC [3]; [9]): 1.4 months | Overall Survival, Time to event, Median (Stage IIIb/IV NSCLC [3]; [9]): 5.3 months | On-Study Death (Stage IIIb/IV NSCLC [3]; [10]): 20 subjects | Primary Cause of On-Study Death: Adverse Event (Stage IIIb/IV NSCLC [3]; [10]): 11 subjects | Primary Cause of On-Study Death: Disease Progression (Stage IIIb/IV NSCLC [3]; [10]): 8 subjects | Primary Reason for Discontinuing Study Treatment: Adverse Event (Stage IIIb/IV NSCLC [3]; [10]): 7 subjects | Primary Reason for Discontinuing Study Treatment: Death (Stage IIIb/IV NSCLC [3]; [10]): 11 subjects | Primary Reason for Discontinuing Study Treatment: Progressive Disease (Radiographic Progression) (Stage IIIb/IV NSCLC [3]; [10]): 42 subjects | number of subjects with the response being CR/PR (Stage IIIb/IV NSCLC [3]; high-dose patritumab (18 mg/kg every 3 weeks) + erlotinib): 5 (7.1%) subjects (%) | number of subjects with the response being CR/PR (Stage IIIb/IV NSCLC [3]; low-dose patritumab (18 mg/kg loading, 9 mg/kg maintenance every 3 weeks) + erlotinib): 9 (12.9%) subjects (%) | improvement in PFS or OS (Stage IIIb/IV NSCLC [3]; patritumab with erlotinib compared to erlotinib plus placebo, full analysis set (unselected ITT population)): no significant improvement | HR for PFS (pooled dose vs placebo) (Stage IIIb/IV NSCLC [3]; HRG protein concentration cut-off 0 (median) pg/mL, n 66): 0.58 | HR for PFS (pooled dose vs placebo) (Stage IIIb/IV NSCLC [3]; HRG protein concentration cut-off 1622.5 pg/mL, n 39): 0.31 | HR for PFS (pooled dose vs placebo) (Stage IIIb/IV NSCLC [3]; HRG protein concentration cut-off 2000 pg/mL, n 34): 0.28 | HR for PFS (pooled dose vs placebo) (Stage IIIb/IV NSCLC [3]; HRG protein concentration cut-off 3000 pg/mL, n 30): 0.24 | HR for PFS (pooled dose vs placebo) (Stage IIIb/IV NSCLC [3]; HRG protein concentration cut-off 4000 pg/mL, n 27): 0.26 | HR for PFS (pooled dose vs placebo) (Stage IIIb/IV NSCLC [3]; HRG protein concentration cut-off 5000 pg/mL, n 23): 0.40 | HR for PFS (pooled dose vs placebo) (Stage IIIb/IV NSCLC [3]; HRG protein concentration cut-off 980 (Q3) pg/mL, n 46): 0.41 | treatment difference in PFS and OS (Stage IIIb/IV NSCLC [3]; subjects with tumors expressing low HRG at a protein level (<980 pg/mL), pooled patritumab + erlotinib vs placebo + erlotinib): no clear treatment difference | efficacy on HER3 phosphorylation ([4]; BT474+HRG (exogenously added heregulin)): could be overcome by exogenously added heregulin | efficacy on basal HER3 phosphorylation ([4]; BT474 basal, do not express heregulin): no efficacy | ligand-dependent basal HER3 phosphorylation ([4]; Western blots): can block | AEs grade≥3, number of subjects (Stage IIIb/IV NSCLC [5]): 2 subjects | patritumab-related AE reported in ≥2 subjects (Stage IIIb/IV NSCLC [5]): decreased appetite | relation of grade≥3 AEs to patritumab (Stage IIIb/IV NSCLC [5]): none were related to patritumab | tumor response (Stage IIIb/IV NSCLC [5]): No response was recorded | DLTs (Stage IIIb/IV NSCLC [5]; 18 mg/kg): no DLTs were seen; also recorded: No DLTs were reported | subjects with serious AEs (Stage IIIb/IV NSCLC [5]; four serious AEs): Three | maximum tolerated dose ([6]; Phase 1 study): not reached | dose limiting toxicity ([6]; in vivo): lack of dose limiting toxicity

From patent publication US12583938B2, “Protein biomarker and uses thereof” (Daiichi Sankyo Co., Ltd., priority 2013, dated 2026)
